What was measured:
Type in all cases: cell-based, human
[1] = tested on: YAP, ERα, cyclin D1, Wnt3a, pGSKβ, β-catenin, c-Myc, Bcl-2, c-Yes, p16, p21, MMP2; experiment: Immunoblot of Y192-231E mutant expressing MCF7 with WBP2 knockdown; conditions: WBP2 expression silenced in WBP2 Y192-231E stable transfectant
Method: A: Whole cell lysates from vector, WBP2-WT, WBP2-Y192-231E mutant and WBP2-Y192-231F mutant expressing MCF7 or Y192-231E mutant expressing MCF7 with WBP2 knockdown were used for IB analysis with antibodies indicated. B: Vector, WBP2-WT, WBP2-Y192-231E mutant or WBP2-Y192-231F mutant-expressing MCF7 were co-transfected with TOPFlash (top panel) or ERE-Luciferase (bottom panel) reporter construct. For cells co-transfected ERE-luciferase, they were either left alone or stimulated with 50 ng/ml Wnt3a ligand for 16 hrs. TCF/ERα luciferase activities in various conditions were then assayed. **P<0.01, ***P<0.001, Student's t-test (2-tailed). […] Cell numbers were measured. […]
Whole cell lysates from vector, WBP2-WT, WBP2-Y192-231E mutant and WBP2-Y192-231F mutant expressing MCF7 (A) or Y192-231E mutant expressing MCF7 with WBP2 knockdown (B) were used for IB analysis with antibodies indicated. Their expression levels were quantified in three independent experiments and the averages were presented relative to actin. […] TCF(C)/ER[…](D) luciferase activities in various conditions were then assayed and analyzed in relative to untreated vector control. **P<0.01, ***P<0.001, Student's t-test (2-tailed). […] Cell numbers were measured daily and compared in relative to vehicle treated vector-expressing cells on Day 0. […] Cell numbers were measured and compared in relative to vehicle-treated cells. […]

WBP2 = experiment: EGF-induced WBP2 tyrosine phosphorylation in HeLa (IP/IB); conditions: HeLa co-transfected with EGFR and WBP2; 50 ng/ml EGF 5 min; 1 hr pre-treatment with 1 μM AZD0530
Method: (§1) A: HeLa were co-transfected with EGFR and V5-tagged WT or individual Y→F mutant of WBP2. 24 hr post-transfection, cells were serum-starved and stimulated with 50 ng/ml EGF for 5 min with/without 1 hr pre-treatment with 10 μM Iressa or 1 μM AZD0530. Whole cell lysates were used for IP/IB analysis with antibodies indicated. B: HeLa were co-transfected with EGFR and V5-tagged WT or individual Y→F mutant of WBP2 in the absence or presence of Src-DN overexpression. C: HeLa were co-transfected with (a) WBP2; (b) WBP2 and EGFR; (c) WBP2 and wild-type (WT) Src; (d) WBP2 and constitutively active (CA) Src; (e) WBP2, EGFR and WT-Src; (f) WBP2, EGFR ad CA-Src; (g) Y192-231F, EGFR and WT-Src. For experiments B and C, 24 hr post-transfection, cells were serum-starved overnight and stimulated with 50 ng/ml EGF for 5 min. Whole cell lysates were used for IP/IB analysis with antibodies indicated. D: HeLa were co-transfected with EGFR and V5-tagged WT or individual Y→F mutant of WBP2. 24 hrpost-transfection, cells were serum-starved and stimulated with 50 ng/ml EGF for 5 min with/without 1 hr pre-treatment with 10 μM Iressa or 1 μM AZD0530. Whole cell lysates were used for IP/IB analysis with antibodies indicated. E: HeLa were co-transfected with EGFR and V5-tagged WT or individual Y→F mutant of WBP2 in the absence or presence of Src-DN-K295M overexpression. F: HeLa were cotransfected with (a) WBP2; (b) WBP2 and EGFR; (c) WBP2 and wild-type (WT) Src; (d) WBP2 and constitutively-active (CA) Src-Y529F; (e) WBP2, EGFR and WT-Src; (f) WBP2, EGFR ad CA-Src; (g) Y192-231F, EGFR and WT-Src. For experiments B and C, 24 hr post-transfection, cells were serum-starved overnight and stimulated with 50 ng/ml EGF for 5 min. Whole cell lysates were used for IP/IB analysis with antibodies indicated. G: MCF7 were co-transfected with V5-tagged WBP2 and either negative control siRNA, c-Yes siRNA or c-Src siRNA. For both experiments, 24 hr post-transfection, cells were serum-starved overnight and stimulated with 50 ng/ml EGF for 5 min. Whole cell lysates were used for IP/IB analysis with antibodies indicated. […]

EGFR = EGFR activation (auto-phosphorylation) in EGF-stimulated HeLa (IB); conditions: 50 ng/ml EGF 5 min, c-Src inhibition, 1 μM AZD0530
Method: as §1, with “overexpression.” for “overexpression. F: HeLa were cotransfected with (a) WBP2; (b) WBP2 and EGFR; (c) WBP2 and wild-type (WT) Src; (d) WBP2 and constitutively-active (CA) Src-Y529F; (e) WBP2, EGFR and WT-Src; (f) WBP2, EGFR ad CA-Src; (g) Y192-231F, EGFR and WT-Src. For experiments B and C, 24 hr post-transfection, cells were serum-starved overnight and stimulated with 50 ng/ml EGF for 5 min. Whole cell lysates were used for IP/IB analysis with antibodies indicated. G: MCF7 were co-transfected with V5-tagged WBP2 and either negative control siRNA, c-Yes siRNA or c-Src siRNA. For both experiments, 24 hr post-transfection, cells were serum-starved overnight and stimulated with 50 ng/ml EGF for 5 min. Whole cell lysates were used for IP/IB analysis with antibodies indicated.”

Molecule | expression of c-Yes, p16, p21 and active MMP2 [1] | expressions of YAP, ERα, cyclin D1, Wnt3a, pGSKβ, β-catenin, c-Myc [1] | EGF-induced tyrosine phosphorylation of WBP2 (WBP2) | EGFR activation (EGFR auto-phosphorylation) (EGFR)
5′-AGCAUCCGCUGUCCGAACUCAAUGG-3′ ((5'-AGCAUCCGCUGUCCGAACUCAAUGG-3'; as printed in the source, key not given here) [WBP2 siRNA, small interfering RNA designed to suppress the expression of WBP2] | remained unchanged | suppressed | – | –
CN1CCN(CCOc2cc(OC3CCOCC3)c3c(Nc4c(Cl)ccc5c4OCO5)ncnc3c2)CC1 [AZD0530] | – | – | abolished | significant reduction
